Entries after “also recorded” stand apart in the source; their conditions may differ.
Assays:
[1] = system: HCT-116 cells; assay: Cancer cells viability by MTT assay; details: for cancer cell viability (% of control) / effect on cancer cells survivability (in words): 48 hrs; for cancer cell viability (% of control) / effect on cancer cells survivability (in words) / attenuating cancer cells proliferation (in words): HCT-116; for effect on cancer cells survivability (in words): 100, 500 and 750 ug/mL; for dose dependence of effect on cancer cell survivability: HCT-116, FIG. 11
Experimental: HCT-116 cells were grown as previously described method by Khan et al. [“Fluorescent magnetic submicronic polymer (FMSP) nanoparticles induce cell death in human colorectal carcinoma cells” Artif Cells Nanomed Biotechnol. (2018 Jul. 25) 1-7, doi: 10.1080/21691401.2018.1491476]. In brief, HCT-116 cells were grown in the DMEM, 10% fetal bovine serum, L-glutamine, selenium chloride, penicillin, and streptomycin. The cells were culture in incubator (Heracell 150i, Thermo-scientific, USA) containing 5% CO2 at 37°. Finally, confluence cells were seeded into 96-well cell plates and once the cells become 80% confluence, the cancer cells were treated with different concentrations (100 μg/mL, 500 μg/mL and 750 μg/mL) of BG-(Tri)2, BG-(ATri)2, BG-(Atet)2, BG-(Imi)2, BG-(H3PO4)2, respectively. Thereafter, the treated cancer cells were microscopically monitored after 24 hrs and 48 hrs intervals. Three samples were examined from each experiment.
The effects of BG-(Tri)2, BG-(ATri)2, BG-(Atet)2, BG-(Imi)2, BG-(H3PO4)2 on cancer cells were determined by MTT assay. The cancer cells were seeded with 6×10^4 cells/mL in 96-well culture plates containing DMEM, 10% Fetal bovine serum, penicillin, and streptomycin and were incubated in CO2 incubator till they become 80% confluence. Then, cancer cells were treated with BG-(Tri)2, BG-(ATri)2, BG-(Atet)2, BG-(Imi)2, BG-(H3PO4)2 at concentrations of 100 μg/mL, 500 μg/mL and 750 μg/mL, respectively. […] MTT (5.0 mg/mL) solution was added in each well and cells were again incubated for 4 hrs in the CO2 incubator and finally media was changed with the addition of DMSO. The color intensity of each sample was measured using an ELISA plate reader (Biotek Instruments, USA) at wavelength 570 nm.
The following formula was used to calculate percentage of cell viability: % of Cell viability=Optical density (O.D) of BG-(Tri)2,BG-(ATri)2,BG-(Atet)2,BG-(Imi)2,BG-(H3PO4)2 cells/Optical density (O.D) of control cells×100 Statistical Analysis:
The mean±standard deviation (SD) from control and BG-(Tri)2, BG-(ATri)2, BG-(Atet)2, BG-(Imi)2, BG-(H3PO4)2 treated groups were calculated. All statistical analyses were completed with GraphPad Prism 6 (GraphPad Software). The difference between control and BG-(Tri)2, BG-(ATri)2, BG-(Atet)2, BG-(Imi)2, BG-(H3PO4)2 groups by a one-way ANOVA test (P<0.05). P<0.05 was considered as statistically significant.

[2] = system: HCT-116 cells; assay: Cancer cell morphology (inverted microscope); type: cell-based, human; details: for cancer cell morphology change: 48 hours, HCT-116; for microscopic evaluation of treated cancer cells (overall): HCT-116, versus control
Source text: Three samples were examined from each experiment.

[3] = Thermogravimetric analyses (TGA); type: physicochemical; details: 25° C. to 700° C., 10° C. min, nitrogen
Experimental: TGA were carried on Perkin-Elmer, simultaneous thermal analyzer (STA6000, PerkinElmer, Ohio, USA). TGA data of azole-BG samples were obtained at temperature in the range of 25° C. to 700° C. at the rate of 10° C. min under inert nitrogen flowing at a rate of 20 mL/min.

Row | SMILES | cancer cell viability (% of control) ([1]; 100 ug/mL) [%] | cancer cell viability (% of control) ([1]; 500 ug/mL) [%] | cancer cell viability (% of control) ([1]; 750 ug/mL) [%] | effect on cancer cells survivability (in words) [1] | attenuating cancer cells proliferation (in words) [1] | dose dependence of effect on cancer cell survivability [1] | cancer cell morphology change ([2]; 100 μg/mL) | cancer cell morphology change ([2]; 500 μg/mL) | cancer cell morphology change ([2]; 750 μg/mL) | microscopic evaluation of treated cancer cells (overall) [2] | cancer cell morphology change ([2]; 500 μg/mL, listed as BG-(ATet)2) | cancer cell morphology change ([2]; 750 μg/mL, listed as BG-(ATet)2) | temperature of weight loss / degradation by TGA [3] | cancer cell morphology change ([2]; 500 μg/mL, listed as BG-(H3PO4)) | cancer cell morphology change ([2]; 750 μg/mL, listed as BG-(H3PO4))
1 | OC(CNc1ncn[nH]1)COCCCCOCC(O)CNc1ncn[nH]1 (stereo not drawn) [BG-(ATri)2] | 28.12 | 25.62 | 24.68 | most profound effects on the cancer cells; also recorded: profound effects on cancer cells survivability | highly effective in attenuating cancer cells proliferation | dose dependent effects on cancer cell survivability | significant levels of nucleus condensation and nuclear augmentation | nuclear condensation and augmentation | Significant loss of cell population; also recorded: strong nuclear condensation and augmentation and showed the beginning of cell membrane disruption | not only affected the cancer cell membrane, but also induced nuclear condensation, augmentation and disintegration |  |  |  |  | 
2 | OC(CNc1nnn[nH]1)COCCCCOCC(O)CNc1nnn[nH]1 (stereo not drawn) [BG-(Atet)2] | 25 | 22.50 | 18.75 | most profound effects on the cancer cells; also recorded: profound effects on cancer cells survivability | highly effective in attenuating cancer cells proliferation | dose dependent effects on cancer cell survivability | strong nucleus condensation and nuclear augmentation | Further nucleus condensation and augmentation | significant loss of cell population | not only affected the cancer cell membrane, but also induced nuclear condensation, augmentation and disintegration | nuclear condensation and augmentation | strong nuclear condensation and augmentation and showed the beginning of cell membrane disruption |  |  | 
3 | O=P(O)(O)OCC(O)COCCCCOCC(O)COP(=O)(O)O (stereo not drawn) [BG-(H3PO4)2] | 85.31 | 55.93 | 53.12 | profound effects on cancer cells survivability |  | dose dependent effects on cancer cell survivability | disintegrations of cancer cells | strong nuclear condensation and augmentation | strong nuclear condensation and augmentation | not only affected the cancer cell membrane, but also induced nuclear condensation, augmentation and disintegration |  |  | Above 200 °C | nuclear condensation and augmentation | strong nuclear condensation and augmentation and showed the beginning of cell membrane disruption
4 | OC(COCCCCOCC(O)Cn1ccnc1)Cn1ccnc1 (stereo not drawn) [BG-(Imi)2] | 25 | 21.87 | 18.75 | most profound effects on the cancer cells; also recorded: profound effects on cancer cells survivability | highly effective in attenuating cancer cells proliferation | dose dependent effects on cancer cell survivability | strong nucleus condensation and nuclear augmentation | further nucleus condensation and augmentation; also recorded: nuclear condensation and augmentation | significant loss of cell population; also recorded: strong nuclear condensation and augmentation and showed the beginning of cell membrane disruption | not only affected the cancer cell membrane, but also induced nuclear condensation, augmentation and disintegration |  |  |  |  | 
5 | OC(COCCCCOCC(O)Cn1cncn1)Cn1cncn1 (stereo not drawn) [BG-(Tri)2] | 75 | 26.86 | 21.87 | most profound effects on the cancer cells; also recorded: profound effects on cancer cells survivability | highly effective in attenuating cancer cells proliferation | dose dependent effects on cancer cell survivability | moderate levels of nucleus condensation and nuclear augmentation | Strong nuclear condensation and augmentation and the beginning of cell membrane disruption | significant loss of cell population; also recorded: nuclear condensation and augmentation | not only affected the cancer cell membrane, but also induced nuclear condensation, augmentation and disintegration |  |  |  |  | 

Source: US10918624B2, “Anti-cancer azole compounds” (Imam Abdulrahman Bin Faisal University, priority 2019, dated 2021)
